Measured values taken from US11649222B2, “Compounds” (UNIVERSITETET I OSLO, priority 2016, dated 2023).
Like-named read-outs stand apart in the source and are kept apart here.

Tests used:
[1] = Solution stability on storage, measured indirectly by MIC; assay type: physicochemical; conditions: solution stored at 2-8° C.; MIC at 25 mg/L inhibitor
Text: P. aeruginosa harboring VIM-2 and K. pneumonia bearing NDM-1 was used as two indicator strains.

E. coli 50739822 (NDM-1) = assay: Checkerboard MIC, Example 26 and meropenem; assay type: cell-based; conditions: for MIC: Escherichia coli
Protocol: (§1) A checkerboard MIC assay was using the broth dilution method according to CLSI guidelines. […] Dilutions to 4 mg/ml was performed by adding+4.75 ml sterile saline to 0.25 ml of the stock solution, and dilutions to 512 μg/ml was performed by adding 10.9 ml MH-broth to the 4 mg/ml solution. Inoculums of bacterial strains as described in Table 4 were prepared by suspending fresh overnight colonies from 5% horse blood agar were to a turbidity of 0.5 McFarland and further diluted to 1×10^6 CFU/ml in MH-broth. Aliquots of 50 μl of MH-broth were added to each well of polystyrene microtiter plates. […] The plates were incubated at 35° C., 16-20 hours.

[2] = system: K. pneumonia 50825040 (NDM-1); assay: Checkerboard MIC, Example 26 and meropenem; assay type: cell-based; conditions: for MIC: Klebsiella pneumoniae
Protocol: as §1

[3] = system: K. pneumonia K45-67 (VIM-1); assay: Checkerboard MIC, Example 26 and meropenem; assay type: cell-based; conditions: for MIC: Klebsiella pneumoniae
Protocol: as §1

[4] = system: K. pneumonia 50690310 (NDM-1); assay: Checkerboard MIC, Example 26 and meropenem; assay type: cell-based; conditions: for MIC: Klebsiella pneumoniae
Protocol: as §1

[5] = system: K. pneumonia 50923744 (VIM); assay: Checkerboard MIC, Example 26 and meropenem; assay type: cell-based; conditions: for MIC: Klebsiella pneumoniae
Protocol: as §1

[6] = system: K. pneumonia 50877064 (NDM-1); assay: Checkerboard MIC, Example 26 and meropenem; assay type: cell-based; conditions: for MIC: Klebsiella pneumoniae
Protocol: as §1

[7] = system: K. pneumonia 50752501 (NDM-1); assay: Checkerboard MIC, Example 26 and meropenem; assay type: cell-based; conditions: for MIC: Klebsiella pneumoniae
Protocol: as §1

E. coli AMA323 (VIM-4) = assay: Checkerboard MIC, Example 26 and meropenem; assay type: cell-based; conditions: for MIC: Escherichia coli
Protocol: as §1

E. coli AMA817 (NDM-1) = assay: Checkerboard MIC, Example 26 and meropenem; assay type: cell-based; conditions: for MIC: Escherichia coli
Protocol: as §1

[8] = system: K. pneumonia 50627996 (NDM-1); assay: Checkerboard MIC, Example 26 and meropenem; assay type: cell-based; conditions: for MIC: Klebsiella pneumoniae
Protocol: as §1

[9] = system: K. pneumonia K46-62 (VIM-1); assay: Checkerboard MIC, Example 26 and meropenem; assay type: cell-based; conditions: for MIC: Klebsiella pneumoniae
Protocol: as §1

[10] = system: K. pneumonia K66-45 (NDM-1); assay: Checkerboard MIC, Example 26 and meropenem; assay type: cell-based; conditions: for MIC: Klebsiella pneumoniae
Protocol: as §1

E. coli AMA1563 (NDM-5) = assay: Checkerboard MIC, Example 26 and meropenem; assay type: cell-based; conditions: for MIC: Escherichia coli
Protocol: as §1

E. coli 50676002 (NDM-1) = assay: Checkerboard MIC, Example 26 and meropenem; assay type: cell-based; conditions: for MIC: Escherichia coli
Protocol: as §1

E. coli 50921466 (VIM-1) = assay: Checkerboard MIC, Example 26 and meropenem; assay type: cell-based; conditions: for MIC: Escherichia coli
Protocol: as §1

[11] = system: resistant gram-negative MBL-based bacteria; assay: MICx: adjuvant concentration giving carbapenem MIC ≤ 2 mg/L; assay type: cell-based; conditions: lowest concentration of compound X that results in a MIC value of ≤ 2 mg/L for carbapenem antibiotics
Procedure, shortened: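 Broth microdilution in MH broth; 0.5 McFarland suspension diluted 1:100 to a final inoculum of 3-7×10^5 CFU/ml. Compounds tested as 2-fold dilutions in MH broth. Carbapenemase/ESBL strains were pre-grown overnight at 37 °C on agar containing 100 mg/L ampicillin.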

K. pneumoniae (NDM) = assay: Microbroth dilution MIC of meropenem ± 25 mg/L inhibitor; assay type: cell-based; conditions: K. pneumoniae NDM (several strains)
E. coli (NDM) = assay: as above; assay type: cell-based; conditions: E. coli NDM (several strains)
[12] = read-out: MIC alone, Example 26

CN(C[C@H](O)[C@@H](O)[C@H](O)[C@H](O)CO)C(=O)c1ccc(CN(Cc2ccccn2)Cc2ccccn2)nc1 [Example 26, 6-((bis(pyridin-2-ylmethyl)amino)methyl)-N-methyl-N-((2S,3R,4R,5R)-2,3,4,5,6-pentahydroxyhexyl)nicotinamide]
storage time at which a loss of activity was observed [1]: > 8 months
MIC (E. coli 50739822 (NDM-1); [12]): > 400 µg/mL
MIC in combination, Example 26 (E. coli 50739822 (NDM-1); with meropenem): 12.5 µg/mL
MIC [2, 12]: > 400 µg/mL
MIC in combination, Example 26 ([2]; with meropenem): 12.5 µg/mL
MIC [3, 12]: > 400 µg/mL
MIC in combination, Example 26 ([3]; with meropenem): 12.5 µg/mL
MIC [4, 12]: > 400 µg/mL
MIC in combination, Example 26 ([4]; with meropenem): 12.5 µg/mL
MIC [5, 12]: > 400 µg/mL
MIC in combination, Example 26 ([5]; with meropenem): 12.5 µg/mL
MIC [6, 12]: > 400 µg/mL
MIC in combination, Example 26 ([6]; with meropenem): 12.5 µg/mL
MIC [7, 12]: > 400 µg/mL
MIC in combination, Example 26 ([7]; with meropenem): 25 µg/mL
MIC (E. coli AMA323 (VIM-4); [12]): > 400 µg/mL
MIC in combination, Example 26 (E. coli AMA323 (VIM-4); with meropenem): 12.5 µg/mL
MIC (E. coli AMA817 (NDM-1); [12]): > 400 µg/mL
MIC in combination, Example 26 (E. coli AMA817 (NDM-1); with meropenem): 12.5 µg/mL
MIC [8, 12]: > 400 µg/mL
MIC in combination, Example 26 ([8]; with meropenem): 12.5 µg/mL
MIC [9, 12]: > 400 µg/mL
MIC in combination, Example 26 ([9]; with meropenem): 12.5 µg/mL
MIC [10, 12]: > 400 µg/mL
MIC in combination, Example 26 ([10]; with meropenem): 12.5 µg/mL
MIC (E. coli AMA1563 (NDM-5); [12]): > 400 µg/mL
MIC in combination, Example 26 (E. coli AMA1563 (NDM-5); with meropenem): 25 µg/mL
MIC (E. coli 50676002 (NDM-1); [12]): > 400 µg/mL
MIC in combination, Example 26 (E. coli 50676002 (NDM-1); with meropenem): 12.5 µg/mL
MIC (E. coli 50921466 (VIM-1); [12]): > 400 µg/mL
MIC in combination, Example 26 (E. coli 50921466 (VIM-1); with meropenem): 12.5 µg/mL
MICx [11]: 31 µM
MIC meropenem + 25 mg/L Example 26 (K. pneumoniae (NDM)): 0.06 µg/mL
MIC meropenem + 25 mg/L Example 26 (E. coli (NDM)): 0.125 µg/mL

C[C@@H](O)[C@H]1C(=O)N2C(C(=O)O)=C(S[C@@H]3CN[C@H](C(=O)N(C)C)C3)[C@H](C)[C@H]12 [meropenem, reference compound]
MIC (E. coli 50739822 (NDM-1); read-out: MIC alone, Meropenem): 32 µg/mL
MIC in combination, Meropenem (E. coli 50739822 (NDM-1); with Example 26): ≤0.0625 µg/mL
MIC ([2]; read-out: MIC alone, Meropenem): 64 µg/mL
MIC in combination, Meropenem ([2]; with Example 26): ≤0.0625 µg/mL
MIC ([3]; read-out: MIC alone, Meropenem): 32 µg/mL
MIC in combination, Meropenem ([3]; with Example 26): ≤0.0625 µg/mL
MIC ([4]; read-out: MIC alone, Meropenem): 16 µg/mL
MIC in combination, Meropenem ([4]; with Example 26): ≤0.0625 µg/mL
MIC ([5]; read-out: MIC alone, Meropenem): 2 µg/mL
MIC in combination, Meropenem ([5]; with Example 26): ≤0.0625 µg/mL
MIC ([6]; read-out: MIC alone, Meropenem): 64 µg/mL
MIC in combination, Meropenem ([6]; with Example 26): ≤0.0625 µg/mL
MIC ([7]; read-out: MIC alone, Meropenem): 64 µg/mL
MIC in combination, Meropenem ([7]; with Example 26): ≤0.0625 µg/mL
MIC (E. coli AMA323 (VIM-4); read-out: MIC alone, Meropenem): 8 µg/mL
MIC in combination, Meropenem (E. coli AMA323 (VIM-4); with Example 26): ≤0.0625 µg/mL
MIC (E. coli AMA817 (NDM-1); read-out: MIC alone, Meropenem): 32 µg/mL
MIC in combination, Meropenem (E. coli AMA817 (NDM-1); with Example 26): ≤0.0625 µg/mL
MIC ([8]; read-out: MIC alone, Meropenem): 64 µg/mL
MIC in combination, Meropenem ([8]; with Example 26): 0.125 µg/mL
MIC ([9]; read-out: MIC alone, Meropenem): 32 µg/mL
MIC in combination, Meropenem ([9]; with Example 26): ≤0.0625 µg/mL
MIC ([10]; read-out: MIC alone, Meropenem): 64 µg/mL
MIC in combination, Meropenem ([10]; with Example 26): ≤0.0625 µg/mL
MIC (E. coli AMA1563 (NDM-5); read-out: MIC alone, Meropenem): 64 µg/mL
MIC in combination, Meropenem (E. coli AMA1563 (NDM-5); with Example 26): ≤0.0625 µg/mL
MIC (E. coli 50676002 (NDM-1); read-out: MIC alone, Meropenem): 32 µg/mL
MIC in combination, Meropenem (E. coli 50676002 (NDM-1); with Example 26): ≤0.0625 µg/mL
MIC (E. coli 50921466 (VIM-1); read-out: MIC alone, Meropenem): 2 µg/mL
MIC in combination, Meropenem (E. coli 50921466 (VIM-1); with Example 26): ≤0.0625 µg/mL
